Measurements taken from US6660742B2, “Compositions and methods of the use thereof achiral analogues of CC-1065 and the duocarmycins” (priority 2000, dated 2003).
Several values for one entry are separate records, joined by “and”; a condition that tells them apart may be missing. Identical values can stand only once. Like-named read-outs stand apart in the source and are kept apart here.

What was measured:
MCF7/ADR-RES = test: NCI screen, MCF7/ADR-RES (Breast Cancer); format: cell-based, human; details: MCF7/ADR-RES
Description: (§1) The compounds of this invention were also tested against the panel of 60 human cancer cell lines at the National Cancer Institute, Bethesda, Md. […] The cytrotoxicity studies were conducted using a 48 hour exposure, and measuring the optical density of sulforhodamide B-derived color.

OVCAR-3 = test: NCI screen, OVCAR-3 (Ovarian Cancer)
Description: as §1

SF-268 = test: NCI screen, SF-268 (CNS Cancer)
Description: (§2) The compounds of this invention were also tested against the panel of 60 human cancer cell lines at the National Cancer Institute, Bethesda, Md. (44). The cytrotoxicity studies were conducted using a 48 hour exposure, and measuring the optical density of sulforhodamide B-derived color.

SK-MEL-28 = test: NCI screen, SK-MEL-28 (Melanoma)
Description: as §1

K-562 = test: NCI screen, K-562 (Leukemia)
Description: as §1

MOLT-4 = test: NCI screen, MOLT-4 (Leukemia)
Description: as §1

NCI-H522 = test: NCI screen, NCI-H522 (Non-Small Cell Lung Cancer)
Description: as §1

NCI-H226 = test: NCI screen, NCI-H226 (Non-Small Cell Lung Cancer); format: cell-based, human
Description: as §1

MCF7 = test: NCI screen, MCF7 (Breast Cancer)
Description: as §1

OVCAR-8 = test: NCI screen, OVCAR-8 (Ovarian Cancer)
Description: as §2

M14 = test: NCI screen, M14 (Melanoma)
Description: as §1

786-0 = test: NCI screen, 786-0 (Renal Cancer)
Description: as §1

IGROV1 = test: NCI screen, IGROV1 (Ovarian Cancer); format: cell-based, human
Description: as §1

RXF 393 = test: NCI screen, RXF 393 (Renal Cancer)
Description: as §1

MDA-N = test: NCI screen, MDA-N (Breast Cancer)
Description: as §1

BT-549 = test: NCI screen, BT-549 (Breast Cancer)
Description: as §2

SF-539 = test: NCI screen, SF-539 (CNS Cancer)
Description: as §1

SNB-75 = test: NCI screen, SNB-75 (CNS Cancer)
Description: as §1

SN12C = test: NCI screen, SN12C (Renal Cancer)
Description: as §1

With O=C(Nc1cc(O)ccc1CCCl)c1cc2cc(NC(=O)c3cc4ccccc4o3)ccc2[nH]1 [Compound 1, 4-(2-Chloroethyl)-3-[5-(5-benzofuran-2-carboxamido)indole-2-carboxamido]phenol] the GI50 (MCF7/ADR-RES) was 1650 nM, the TGI (MCF7/ADR-RES) was 3.79E−06 Molar and the “Percent Growth” value (MCF7/ADR-RES; Log10 Concentration −4.0) was −55%. For the same compound, the “Percent Growth” value (MCF7/ADR-RES; Log10 Concentration −5.0) was −58%, the “Percent Growth” value (MCF7/ADR-RES; Log10 Concentration −6.0) was 80% and the “Percent Growth” value (MCF7/ADR-RES; Log10 Concentration −7.0) was 97%. The “Percent Growth” value (MCF7/ADR-RES; Log10 Concentration −8.0) was 93%, the GI50 (OVCAR-3) was 2130 nM and the TGI (OVCAR-3) was 4.69E−06 Molar. For the same compound, the “Percent Growth” value (OVCAR-3; Log10 Concentration −4.0) was −99%, the “Percent Growth” value (OVCAR-3; Log10 Concentration −7.0) was 102% and the “Percent Growth” value (OVCAR-3; Log10 Concentration −8.0) was 94%. The “Percent Growth” value (SF-268) was 68% and 70% and 88%, the GI50 (SF-268; SF-268) was 13400 nM and the TGI (SF-268; SF-268) was 2.78E−05 Molar. The “Percent Growth” value (SF-268; SF-268, Log10 Concentration −4.0) was −88%, the “Percent Growth” value (SF-268; SF-268, Log10 Concentration −7.0) was 88% and the GI50 (SK-MEL-28) was 2400 nM. The TGI (SK-MEL-28) was 6.10E−06 Molar, the “Percent Growth” value (SK-MEL-28; Log10 Concentration −4.0) was −98% and the “Percent Growth” value (SK-MEL-28; Log10 Concentration −6.0) was 97%. For the same compound, the “Percent Growth” value (SK-MEL-28; Log10 Concentration −8.0) was 103%, the GI50 (K-562) was 2880 nM and the TGI (K-562) was 9.59E−06 Molar. For the same compound, the “Percent Growth” value (K-562; Log10 Concentration −4.0) was −5%, the GI50 (A549/ATCC) was 1980 nM and the TGI (A549/ATCC) was 6.58E−06 Molar. For the same compound, the “Percent Growth” value (A549/ATCC; Log10 Concentration −4.0) was −100%, the “Percent Growth” value (A549/ATCC; Log10 Concentration −6.0) was 78% and the “Percent Growth” value (A549/ATCC; Log10 Concentration −8.0) was 96%. For the same compound, the GI50 (MOLT-4) was 1140 nM, the “Percent Growth” value (MOLT-4; Log10 Concentration −4.0) was 4% and the GI50 (NCI-H522) was 933 nM. The TGI (NCI-H522) was 3.00E−06 Molar, the “Percent Growth” value (NCI-H522; Log10 Concentration −4.0) was −80% and the “Percent Growth” value (NCI-H522; Log10 Concentration −7.0) was 99%. The “Percent Growth” value (NCI-H522; Log10 Concentration −8.0) was 98%, the GI50 (NCI-H226) was 4090 nM and the TGI (NCI-H226) was 1.62E−05 Molar. For the same compound, the “Percent Growth” value (NCI-H226; Log10 Concentration −4.0) was −90%, the “Percent Growth” value (NCI-H226; Log10 Concentration −8.0) was 100% and the GI50 (KM12) was 18800 nM. The “Percent Growth” value (KM12) was 93%, the TGI (KM12) was 3.50E−05 Molar and the GI50 (MCF7) was 1030 nM. For the same compound, the TGI (MCF7) was 2.27E−06 Molar, the “Percent Growth” value (MCF7; Log10 Concentration −4.0) was −100% and the “Percent Growth” value (MCF7; Log10 Concentration −8.0) was 111%. The “Percent Growth” value (OVCAR-8) was −61%, the GI50 (OVCAR-8; OVCAR-8) was 1320 nM and the TGI (OVCAR-8; OVCAR-8) was 3.28E−06 Molar. For the same compound, the “Percent Growth” value (OVCAR-8; OVCAR-8, Log10 Concentration −4.0) was −63%, the “Percent Growth” value (OVCAR-8; OVCAR-8, Log10 Concentration −6.0) was 65% and the “Percent Growth” value (OVCAR-8; OVCAR-8, Log10 Concentration −7.0) was 94%. The “Percent Growth” value (OVCAR-8; OVCAR-8, Log10 Concentration −8.0) was 94%, the “Percent Growth” value (M14) was −75% and the GI50 (M14; M14) was 1490 nM. The TGI (M14; M14) was 3.19E−06 Molar, the “Percent Growth” value (M14; M14, Log10 Concentration −4.0) was −99% and the “Percent Growth” value (M14; M14, Log10 Concentration −6.0) was 76%. The “Percent Growth” value (M14; M14, Log10 Concentration −7.0) was 91%, the “Percent Growth” value (M14; M14, Log10 Concentration −8.0) was 93% and the GI50 (786-0) was 2620 nM. The TGI (786-0) was 1.07E−05 Molar, the “Percent Growth” value (786-0; Log10 Concentration −4.0) was −50% and the “Percent Growth” value (786-0; Log10 Concentration −5.0) was 2%. The “Percent Growth” value (786-0; Log10 Concentration −6.0) was 85%, the “Percent Growth” value (786-0; Log10 Concentration −7.0) was 101% and the “Percent Growth” value (786-0; Log10 Concentration −8.0) was 98%. The “Percent Growth” value (IGROV1) was −65%, the GI50 (IGROV1; IGROV1) was 1500 nM and the TGI (IGROV1; IGROV1) was 3.41E−06 Molar. The “Percent Growth” value (IGROV1; IGROV1, Log10 Concentration −4.0) was −94%, the “Percent Growth” value (IGROV1; IGROV1, Log10 Concentration −6.0) was 75% and the “Percent Growth” value (IGROV1; IGROV1, Log10 Concentration −7.0) was 98%. For the same compound, the “Percent Growth” value (IGROV1; IGROV1, Log10 Concentration −8.0) was 93%, the GI50 (RXF 393) was 982 nM and the TGI (RXF 393) was 2.18E−06 Molar. The “Percent Growth” value (RXF 393; Log10 Concentration −4.0) was −94%, the “Percent Growth” value (RXF 393; Log10 Concentration −5.0) was −97% and the “Percent Growth” value (RXF 393; Log10 Concentration −6.0) was 50%. The “Percent Growth” value (RXF 393; Log10 Concentration −7.0) was 74%, the “Percent Growth” value (RXF 393; Log10 Concentration −8.0) was 104% and the “Percent Growth” value (MDA-N) was −35%. For the same compound, the GI50 (MDA-N; MDA-N) was 2280 nM, the TGI (MDA-N; MDA-N) was 5.47E−06 Molar and the “Percent Growth” value (MDA-N; MDA-N, Log10 Concentration −4.0) was −87%. For the same compound, the “Percent Growth” value (MDA-N; MDA-N, Log10 Concentration −6.0) was 97%, the “Percent Growth” value (MDA-N; MDA-N, Log10 Concentration −7.0) was 103% and the “Percent Growth” value (MDA-N; MDA-N, Log10 Concentration −8.0) was 100%. The “Percent Growth” value (BT-549) was 110%, the GI50 (BT-549; BT-549) was 3600 nM and the TGI (BT-549; BT-549) was 2.05E−05 Molar. The “Percent Growth” value (BT-549; BT-549, Log10 Concentration −4.0) was −20%, the “Percent Growth” value (BT-549; BT-549, Log10 Concentration −5.0) was 9% and the “Percent Growth” value (BT-549; BT-549, Log10 Concentration −6.0) was 101%. For the same compound, the “Percent Growth” value (BT-549; BT-549, Log10 Concentration −7.0) was 103%, the GI50 (SF-539) was 1920 nM and the TGI (SF-539) was 4.16E−06 Molar. For the same compound, the “Percent Growth” value (SF-539; Log10 Concentration −4.0) was −100%, the “Percent Growth” value (SF-539; Log10 Concentration −8.0) was 92% and the “Percent Growth” value (SNB-75) was 65% and 56% and 93%. For the same compound, the GI50 (SNB-75; SNB-75) was 18600 nM, the TGI (SNB-75; SNB-75) was 3.32E−05 Molar and the “Percent Growth” value (SNB-75; SNB-75, Log10 Concentration −4.0) was −96%. The GI50 (SN12C) was 3100 nM, the TGI (SN12C) was 9.41E−06 Molar and the “Percent Growth” value (SN12C; Log10 Concentration −4.0) was −77%. The “Percent Growth” value (SN12C; Log10 Concentration −5.0) was −3% and the “Percent Growth” value (SN12C; Log10 Concentration −7.0) was 102%.
